Results published in paper PMC6613765 (Journal of Virology, 2019).
Counter-ions that a name gives are not always drawn. Like-named read-outs stand apart in the source and are kept apart here.

Assays:
HCoV-NL63 [1] = test: microbe, parasite or virus in culture; details: Human coronavirus NL63, LLC-MK2, 72 h, read-out: HCoV-NL63 EC50
in vitro = details: mouse
MHV-A59 [2] = test: microbe, parasite or virus in culture; details: Murine coronavirus, 72 h, read-out: MHV-A59 EC50
HCoV-OC43-WT [3] = tested on: HCoV-OC43-WT; design: species or system BALB/c mice
HCoV-OC43-WT [4] = details: for EC50: read-out: HCoV-OC43 EC50
HCoV-NL63 [5] = details: for EC50: read-out: HCoV-NL63 EC50
MERS-CoV [6] = details: for EC50: read-out: MERS-CoV EC50
MHV-A59 [7] = details: for EC50: read-out: MHV-A59 EC50
[8] = tested on: four CoVs (HCoV-OC43, HCoV-NL63, MERS-CoV, MHV-A59); test: organism not typed; format: cell-based; details: read-out: EC50 values against all CoVs
[9] = tested on: pseudotyped MERS-CoV (HIV-1 backbone, spike protein of MERS-CoV); format: cell-based
SARS-CoV [10] = details: mouse, in vivo; cited from earlier work
MERS-CoV [11] = details: cited from earlier work
SARS-CoV [12] = details: cited from earlier work
rOC43-ns2Del-Rluc = format: in vivo, BALB/c mice
MERS-CoV [13] = details: read-out: EC50, MERS-CoV; cited from earlier work
HCoV-229E = details: read-out: EC50, HCoV-229E; CoV-infected human primary cells; cited from earlier work

Compound	EC50 (HCoV-NL63 [1]) [µM]	CC50 (in vitro) [µM]	EC50 (MHV-A59 [2]) [µM]	further results
O=C(/C=C/c1ccccc1)c1ccc(O)cc1 [4'-Hydroxychalcone]	7.25	> 20	9.75	–
C=CCc1ccccc1OCC(O)CNC(C)C (stereo not shown) [Alprenolol]	11.9	> 20	14	–
CCCCCC[C@H]1C(=O)O[C@H](C)[C@H](NC(=O)c2cccc(NC=O)c2O)C(=O)O[C@@H](C)[C@@H]1OC(=O)CC(C)C [Antimycin A]	6.05	3.98	5.42	–
COc1cc2c3cc1Oc1c(OC)c(OC)cc4c1[C@@H](Cc1ccc(O)c(c1)Oc1ccc(cc1)C[C@@H]3N(C)CC2)N(C)CC4 [Berbamine]	9.46	> 20	10.9	–
CN(C)CCN(Cc1ccc(Cl)cc1)c1ccccn1 [Chloropyramine]	14.2	> 20	2.42	–
CCN(CC)CCCC(C)Nc1ccnc2cc(Cl)ccc12 (stereo not shown) [Chloroquine]	4.89	> 20	15.9	antiviral activity in vivo, positive control (HCoV-OC43-WT [3]; mouse): showed antiviral activity
C[C@H]1[C@H]2CC[C@H]3[C@@H]4CC=C5C[C@@H](N(C)C)CC[C@]5(C)[C@H]4CC[C@]23CN1C [Conessine]	10.8	> 20	11.5	–
C[C@@H]1C[C@@H]([C@H](O)CC2CC(=O)NC(=O)C2)C(=O)[C@@H](C)C1 [Cycloheximide]	2.64	3.19	5.21	–
CNCCCN1c2ccccc2CCc2ccccc21 [Desipramine]	6.68	> 20	8.75	–
CC(=O)Oc1cc2c(c(C)c1OC(C)=O)CC=C1[C@@]2(C)CC[C@@]2(C)C3C[C@](C)(C(=O)O)CC[C@]3(C)CC[C@]12C (stereo partly shown) [Dihydrocelastryl diacetate]	–	–	–	CC50 (DBT cells): > 20 µM; CC50 (LLC-MK2 cells): > 20 µM; EC50 (HCoV-OC43-WT [4]): 1.71 µM; EC50 (HCoV-NL63 [5]): 0.65 µM; EC50 (MERS-CoV [6]): 10.6 µM; CC50 (Vero E6 cells): > 20 µM; EC50 (MHV-A59 [7]): 4.24 µM; CC50 (BHK-21 cells): > 20 µM
O=C(Nc1ccccc1)OCC(CN1CCCCC1)OC(=O)Nc1ccccc1 (stereo not shown) [Diperodon]	4.91	14.5	1.98	–
COc1cc2nc(N3CCN(C(=O)C4COc5ccccc5O4)CC3)nc(N)c2cc1OC (stereo not shown) [Doxazosin mesylate]	14	> 20	14.5	–
CC[C@H]1CN2CCc3cc(OC)c(OC)cc3[C@@H]2C[C@@H]1C[C@H]1NCCc2cc(OC)c(OC)cc21 [Emetine]	1.43	3.51	0.12	CC50 (LLC-MK2 cells; rhesus monkey): 3.63 µM; EC50 [8]: < 5 µM; SI (CC50/EC50), MERS-CoV (MERS-CoV [6]): 9.06; luciferase activity reduced compared with control [9]: 50 fold; CC50 (BHK-21 cells; hamster): 2.69 µM
CCCCCCOc1ccccc1C(N)=O [Exalamide]	17.5	> 20	16.4	–
CCC(CC)COC(=O)[C@H](C)N[P@](=O)(OC[C@H]1O[C@@](C#N)(c2ccc3c(N)ncnn23)[C@H](O)[C@@H]1O)Oc1ccccc1 [GS-5734]	–	–	–	lung viral load (SARS-CoV [10]): significantly reduced the lung viral load; IC50, MERS-CoV replication (MERS-CoV [11]): submicromolar; IC50, SARS-CoV replication (SARS-CoV [12]): submicromolar
COc1ccc2c(c1)[nH]c1c(C)nccc12 [Harmine]	13.5	> 20	13.8	–
CCN(CC)CCNc1ccc(CO)c2sc3ccccc3c(=O)c12 [Hycanthone]	5.76	4.19	5.78	–

Compound	EC50 (HCoV-NL63 [1]) [µM]	CC50 (in vitro) [µM]	EC50 (MHV-A59 [2]) [µM]	further results
O[C@H]1[C@H]2c3cc4c(cc3CN3CCC(=C[C@@H]1O)[C@H]23)OCO4 [Lycorine]	0.47	3.51	0.31	bioluminescence signal in the brain (rOC43-ns2Del-Rluc; 15 mg/kg daily, 2, 3 and 4 days postinoculation): no signal was detected; Rluc activity in PBS-DMSO-treated mice relative to treated mice (rOC43-ns2Del-Rluc; mouse brain, 72 h postinoculation, 15 mg/kg): ~2 × 10^5 fold; HCoV-OC43 nucleocapsid protein in mouse brain coronal sections (IHC) (HCoV-OC43-WT [3]; in vivo): present only in the PBS-DMSO-treated group, not in the lycorine-treated group; viral loads in the brain and spinal cord (HCoV-OC43-WT [3]; mouse, in vivo): under the limit of detection; CC50 (LLC-MK2 cells; rhesus monkey): 3.81 µM; SI (CC50/EC50), HCoV-OC43 (HCoV-OC43-WT [4]): 29.13; CC50 (BHK-21 cells; hamster): 4.37 µM
COc1c(C)c2c(c(O)c1C/C=C(\C)CCC(=O)OCCN1CCOCC1)C(=O)OC2 [Mycophenolate mofetil]	0.23	3.33	0.27	CC50 (LLC-MK2 cells; rhesus monkey): 3.01 µM; EC50 [8]: < 5 µM; CC50 (BHK-21 cells; hamster): 3.43 µM
COc1c(C)c2c(c(O)c1C/C=C(\C)CCC(=O)O)C(=O)OC2 [Mycophenolic acid]	0.18	4.18	0.17	CC50 (LLC-MK2 cells; rhesus monkey): 3.44 µM; SI (CC50/EC50), HCoV-NL63 (HCoV-NL63 [5]): 19.11; EC50 [8]: < 5 µM; CC50 (BHK-21 cells; hamster): 3.55 µM
CC[C@H]1/C=C/C=C/C[C@@H](C)[C@H](O)[C@@](C)(O)C(=O)[C@@H](C)[C@H](O)[C@@H](C)C(=O)[C@@H](C)[C@H](O)[C@@H](C)/C=C/C(=O)O[C@@H]2[C@H](C)[C@H](CC1)O[C@]1(CC[C@H](C)[C@H](C[C@@H](C)O)O1)[C@H]2C [Oligomycin]	2.63	6.78	6.43	–
COc1ccc(Cc2nccc3cc(OC)c(OC)cc23)cc1OC [Papaverine]	7.32	12.4	11.5	–
Nc1ccc(/N=N/c2ccccc2)c(N)n1 [Phenazopyridine]	2.02	> 20	0.77	CC50 (LLC-MK2 cells; rhesus monkey): > 20 µM; EC50 [8]: < 5 µM; SI (CC50/EC50), MHV-A59 (MHV-A59 [7]): > 25.97; CC50 (BHK-21 cells; hamster): > 20 µM
CC(=O)[O][Hg][c]1ccccc1 [Phenylmercuric acetate]	–	–	–	CC50 (DBT cells): 5.97 µM; CC50 (LLC-MK2 cells): 5.47 µM; EC50 (HCoV-OC43-WT [4]): 2.17 µM; EC50 (HCoV-NL63 [5]): 6.79 µM; EC50 (MERS-CoV [6]): 6.44 µM; CC50 (Vero E6 cells): 5.39 µM; EC50 (MHV-A59 [7]): 6.81 µM; CC50 (BHK-21 cells): 5.35 µM
COC(=O)[C@]1(C)CC[C@]2(C)CC[C@]3(C)C4=CC=C5C(=CC(=O)C(O)=C5C)[C@]4(C)CC[C@@]3(C)[C@@H]2C1 [Pristimerin]	1.63	> 20	9.17	–
CN(C)CCCN1c2ccccc2Sc2ccccc21 [Promazine]	1.37	> 20	0.51	–
Cc1cc(/C=C/c2ccc3cc(N(C)C)ccc3[n+]2C)c(C)n1-c1ccccc1 [Pyrvinium pamoate]	3.35	–	–	EC50 [8]: < 5 µM
CC[C@@H](C(=O)[C@@H](C)[C@@H](O)[C@H](C)[C@@H]1O[C@@H]([C@@H](CC)C(=O)O)CC[C@@H]1C)[C@H]1O[C@]2(C=C[C@@H](O)[C@]3(CC[C@@](C)([C@H]4CC[C@](O)(CC)[C@H](C)O4)O3)O2)[C@H](C)C[C@@H]1C [Salinomycin sodium]	5.71	2.45	5.16	–
COc1ccc2cc1Oc1ccc(cc1)C[C@H]1c3cc(c(OC)cc3CCN1C)Oc1c(OC)c(OC)cc3c1[C@H](C2)N(C)CC3 [Tetrandrine]	2.05	> 20	4.81	–
Clc1ccccc1CN1CCc2sccc2C1 [Ticlopidine]	15.7	> 20	14.3	–
CCN(CC)CCOc1ccc2c(c1)C(=O)c1cc(OCCN(CC)CC)ccc1-2 [Tilorone]	6.89	> 20	16.1	–
CC(C)[C@@H]1NC(=O)[C@H](C)OC(=O)[C@@H](C(C)C)NC(=O)[C@@H](C(C)C)OC(=O)[C@H](C(C)C)NC(=O)[C@H](C)OC(=O)[C@@H](C(C)C)NC(=O)[C@@H](C(C)C)OC(=O)[C@H](C(C)C)NC(=O)[C@H](C)OC(=O)[C@@H](C(C)C)NC(=O)[C@@H](C(C)C)OC1=O [Valinomycin]	1.89	5.11	6.78	–
COC(=O)[C@H]1[C@@H](O)[C@@]2(O)c3c(OC)cc(O[C@@H]4O[C@@H]([C@H](O)CO)CO[C@H]4OC)cc3O[C@@]2(c2ccc(OC)cc2)[C@@H]1c1ccccc1 [silvestrol]	–	–	–	EC50 (MERS-CoV [13]): 0.0013 µM; EC50 (HCoV-229E): 0.003 µM
Monensin sodium	–	–	–	EC50 (HCoV-OC43-WT [4]): 3.81 µM; EC50 (HCoV-NL63 [5]): 1.54 µM; EC50 [8]: < 5 µM; EC50 (MERS-CoV [6]): 3.27 µM; EC50 (MHV-A59 [7]): 0.18 µM
